Results taken from ChEMBL document CHEMBL1201862, “PubChem BioAssay data set” (2004).
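Results reflect a 48-hour exposure of cells in 96-well plates to compound at five concentrations. The concentration for 50% growth inhibition is given as GI50.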 Calls of active or inactive are those of the source. Cut-off read from the data, not from the text of the source: active = GI50 up to about 1.1 µM and inactive = higher.

Columns and labels:
Assay in all cases: NCI tumour cell line growth inhibition, 48 h
[1] = system: MDA-MB-231
[2] = system: Malme-3M
[3] = system: T47D
[4] = system: TK-10
[5] = system: DU-145
[6] = system: U-251
[7] = system: SK-MEL-28
[8] = system: NCI-H522
[9] = system: MOLT-4
[10] = system: Hs-578T
[11] = system: SK-MEL-5
[12] = system: HOP-62
[13] = system: BT-549
[14] = system: UACC-62
[15] = system: A549
[16] = system: OVCAR-3
[17] = system: UACC-257
[18] = system: SF-295
[19] = system: NCI-H226
[20] = system: SN12C
[21] = system: MCF7
[22] = system: RXF 393
[23] = system: COLO 205
[24] = system: HCT-15
[25] = system: KM12
[26] = system: ACHN
[27] = system: HT-29
[28] = system: OVCAR-5
[29] = system: SW-620
[30] = system: SNB-75
[31] = system: IGROV-1
[32] = system: PC-3
[33] = system: SF-539
[34] = system: SNB-19
[35] = system: HOP-92
[36] = system: UO-31
[37] = system: M14
[38] = system: K562
[39] = system: NCI-H460
[40] = system: OVCAR-4
[41] = system: CCRF-CEM
[42] = system: NCI-H23
[43] = system: EKVX
[44] = system: HL-60
[45] = system: SF-268
[46] = system: HCT-116
[47] = system: CAKI-1
[48] = system: LOX IMVI
[49] = system: SR
[50] = system: SK-MEL-2
[51] = system: OVCAR-8
[52] = system: NCI/ADR-RES
[53] = system: SK-OV-3
[54] = system: MDA-MB-435
[55] = system: A498
[56] = system: MDA-N
[57] = system: 786-0
[58] = system: RPMI-8226
[59] = system: HCC 2998

In the case of `CCOCc1nc2c(OC)c(-c3nc4ccc(N5CCN(C)CC5)cc4[nH]3)cc(OC)c2[nH]1`, the GI50 [1] is reported as 28.2 µM (inactive), the GI50 [2] is reported as 18 µM (inactive) and the GI50 [3] is reported as > 100 µM (inactive). For the same compound, the GI50 [4] was 53.3 µM (inactive), the GI50 [5] was 68.5 µM (inactive) and the GI50 [6] was 43.3 µM (inactive). The GI50 [7] was 18.6 µM (inactive), the GI50 [8] was 23.5 µM (inactive) and the GI50 [9] was 31.2 µM (inactive). For the same compound, the GI50 [10] was 34.2 µM (inactive), the GI50 [11] was 17.5 µM (inactive) and the GI50 [12] was 25.6 µM (inactive). The GI50 [13] was 66.4 µM (inactive), the GI50 [14] was 19.6 µM (inactive) and the GI50 [15] was 46.9 µM (inactive). For the same compound, the GI50 [16] was 31.6 µM (inactive), the GI50 [17] was 19 µM (inactive) and the GI50 [18] was 21 µM (inactive). For the same compound, the GI50 [19] was 31.9 µM (inactive), the GI50 [20] was 74.3 µM (inactive) and the GI50 [21] was 47.6 µM (inactive). The GI50 [22] was 16 µM (inactive), the GI50 [23] was 18.9 µM (inactive) and the GI50 [24] was 44.2 µM. The GI50 [25] was 31.6 µM (inactive), the GI50 [26] was 57.4 µM (inactive) and the GI50 [27] was 27.8 µM (inactive). The GI50 [28] was 83.6 µM (inactive), the GI50 [29] was 34.7 µM (inactive) and the GI50 [30] was 28.9 µM (inactive). For the same compound, the GI50 [31] was 91.6 µM (inactive), the GI50 [32] was 63.4 µM (inactive) and the GI50 [33] was 19.3 µM (inactive). For the same compound, the GI50 [34] was 44.4 µM (inactive), the GI50 [35] was > 100 µM (inactive) and the GI50 [36] was 22.1 µM (inactive). For the same compound, the GI50 [37] was 20.2 µM (inactive), the GI50 [38] was 35.6 µM (inactive) and the GI50 [39] was 26.4 µM (inactive). For the same compound, the GI50 [40] was 71.8 µM (inactive), the GI50 [41] was 12.7 µM (inactive) and the GI50 [42] was 37.8 µM (inactive). The GI50 [43] was > 100 µM (inactive), the GI50 [44] was 4.39 µM (inactive) and the GI50 [45] was 63.4 µM (inactive). For the same compound, the GI50 [46] was 34 µM (inactive), the GI50 [47] was 27.6 µM (inactive) and the GI50 [48] was 21.1 µM (inactive). For the same compound, the GI50 [49] was 24.2 µM (inactive), the GI50 [50] was 20.6 µM (inactive) and the GI50 [51] was 80.2 µM (inactive). For the same compound, the GI50 [52] was > 100 µM (inactive), the GI50 [53] was 71.4 µM (inactive) and the GI50 [54] was 20.6 µM (inactive). For the same compound, the GI50 [55] was 37 µM (inactive), the GI50 [56] was 18.6 µM (inactive) and the GI50 [57] was 31 µM (inactive). For the same compound, the GI50 [58] was 40.1 µM (inactive).

`CC1(C)CC[C@]2(C(=O)O)CC[C@]3(C)C(=CC[C@@H]4[C@@]5(C)CC[C@H](OC6OC(C(=O)O)C(O)C(O)C6O)C(C)(C)[C@@H]5CC[C@]43C)[C@@H]2C1` (stereo not given in full) was tested, and the GI50 [1] was 18.2 µM (inactive), the GI50 [2] was 18.1 µM (inactive) and the GI50 [3] was 18.4 µM (inactive). The GI50 [5] was 16.8 µM (inactive), the GI50 [6] was 14.9 µM (inactive) and the GI50 [7] was 19.6 µM (inactive). The GI50 [59] was 18.8 µM (inactive), the GI50 [8] was 19.4 µM (inactive) and the GI50 [9] was 19.8 µM (inactive). For the same compound, the GI50 [10] was 21.5 µM (inactive), the GI50 [11] was 19.1 µM (inactive) and the GI50 [12] was 18.8 µM (inactive). The GI50 [13] was 20.9 µM (inactive), the GI50 [14] was 18.4 µM (inactive) and the GI50 [15] was 18.8 µM (inactive). The GI50 [16] was 14.2 µM (inactive), the GI50 [17] was 16.4 µM (inactive) and the GI50 [18] was 15.2 µM (inactive). The GI50 [19] was 18.5 µM (inactive), the GI50 [20] was 16.8 µM (inactive) and the GI50 [21] was 24.9 µM (inactive). For the same compound, the GI50 [22] was 16.7 µM (inactive), the GI50 [23] was 16.9 µM (inactive) and the GI50 [24] was 16.9 µM. The GI50 [25] was 16.5 µM (inactive), the GI50 [26] was 16.1 µM (inactive) and the GI50 [27] was 15.1 µM (inactive). For the same compound, the GI50 [28] was 16.2 µM (inactive), the GI50 [29] was 17.4 µM (inactive) and the GI50 [30] was 18.1 µM (inactive). The GI50 [31] was 20 µM (inactive), the GI50 [32] was 18.2 µM (inactive) and the GI50 [34] was 22 µM (inactive). For the same compound, the GI50 [35] was 13.1 µM (inactive), the GI50 [36] was 19.5 µM (inactive) and the GI50 [37] was 16.9 µM (inactive). The GI50 [38] was 17 µM (inactive), the GI50 [39] was 18.7 µM (inactive) and the GI50 [40] was 16.8 µM (inactive). For the same compound, the GI50 [41] was 21 µM (inactive), the GI50 [42] was 18.9 µM (inactive) and the GI50 [43] was 24.5 µM (inactive). For the same compound, the GI50 [44] was 18.2 µM (inactive), the GI50 [45] was 17.3 µM (inactive) and the GI50 [46] was 16.8 µM (inactive). The GI50 [47] was 18.7 µM (inactive), the GI50 [48] was 19 µM (inactive) and the GI50 [49] was 15 µM (inactive). For the same compound, the GI50 [50] was 15.4 µM (inactive), the GI50 [51] was 20.8 µM (inactive) and the GI50 [52] was 17.7 µM (inactive). The GI50 [53] was 19.5 µM (inactive), the GI50 [54] was 19.2 µM (inactive) and the GI50 [55] was 19.1 µM (inactive). The GI50 [56] was 18.4 µM (inactive), the GI50 [57] was 17.5 µM (inactive) and the GI50 [58] was 19.8 µM (inactive).
